Data set [1] has as its system osteoclast proton pump. Particulars: membrane vesicles from avian osteoclasts, ATP-driven acidification, acridine orange quench; cited from earlier work.
The test system of data set [2] is osteoclast cultures. The following applies: cited from earlier work.

A word on the melting point: it is the temperature of the solid-liquid transition.

Molecules are shown by their SMILES. Where only a bound is given, the exact number is not on record here.

On to `CN1C(C)(C)CC(NC(=O)c2ccc(-c3nc4cc(Cl)c(Cl)cc4[nH]3)cc2)CC1(C)C` [Example 1, 4-(5,6-Dichlorobenzimidazol-2-yl)-N-(1,2,2,6,6-pentamethylpiperidin-4-yl)benzamide], for which the melting point was over 280 °C.

The compound `CN1C(C)(C)CC(NC(=O)c2ccc(-c3nc4cc(Cl)ccc4[nH]3)cc2)CC1(C)C` [Example 2, 4-(5-Chlorobenzimidazol-2-yl)-N-(1,2,2,6,6-pentamethylpiperidin-4-yl)-benzamide] registered a melting point of over 250 °C.

Regarding `CN1C(C)(C)CC(NC(=O)c2ccc(-c3nc4cc(Cl)c(Cl)cc4[nH]3)c(O)c2)CC1(C)C` [Example 3, 4-(5,6-Dichlorobenzimidazol-2-yl)-N-(1,2,2,6,6-pentamethylpiperidin-4-yl)-3-hydroxybenzamide], the melting point is over 250 °C.

Compound `COc1cc(C(=O)NC2CC(C)(C)N(C)C(C)(C)C2)ccc1-c1nc2cc(Cl)c(Cl)cc2[nH]1` [Example 4, 4-(5,6-Dichlorobenzimidazol-2-yl)-N-(1,2,2,6,6-pentamethylpiperidin-4-yl)-3-methoxybenzamide] showed a melting point of 285 to 286 °C.

Compound `COc1cc(C(=O)NC2CC(C)(C)N(C)C(C)(C)C2)ccc1-c1nc2cc(Cl)c(Cl)cc2n1C` [Example 5, 4-(5,6-Dichloro-1-methylbenzimidazol-2-yl)-N-(1,2,2,6,6-pentamethylpiperidin-4-yl)-3-methoxybenzamide] showed a melting point of 178 to 180 °C.

`CCOc1cc(C(=O)NC2CC(C)(C)NC(C)(C)C2)ccc1-c1nc2cc(Cl)c(Cl)cc2[nH]1` [Example 6, 4-(5,6-Dichlorobenzimidazol-2-yl)-N-(2,2,6,6-tetramethylpiperidin-4-yl)-3-ethoxybenzamide] had a melting point of over 280 °C.

Consider `COc1cc(C(=O)NCCCN2CCN(c3ncccn3)CC2)ccc1-c1nc2cc(Cl)c(Cl)cc2[nH]1` [Example 7, 4-(5,6-Dichlorobenzimidazol-2-yl)-N-[3-[4-(2-pyrimidinyl)piperazin-1-yl]propyl]-3-methoxybenzamide], for which the melting point was in the range of 255 to 258 °C.

On to `O=C(NCCCN1CCN(c2ncccn2)CC1)c1ccc(-c2nc3cc(Cl)c(Cl)cc3[nH]2)c(O)c1` [Example 8, 4-(5,6-Dichlorobenzimidazol-2-yl)-N-[3-[4-(2-pyrimidinyl)piperazin-1-yl]propyl]-3-hydroxybenzamide], for which the melting point was in the range of 258 to 260 °C.

For `COc1cc(C(=O)NC2CC(C)(C)NC(C)(C)C2)ccc1-c1nc2cc(Cl)c(Cl)cc2[nH]1` [Example 10, 4-(5,6-Dichlorobenzimidazol-2-yl)-N-(2,2,6,6-tetramethylpiperidin-4-yl)-3-methoxybenzamide], the melting point fell in the range of 233 to 235 °C.

In the case of `COc1cc(C(=O)N(C)C2CC(C)(C)NC(C)(C)C2)ccc1-c1nc2cc(Cl)c(Cl)cc2[nH]1` [Example 11, 4-(5,6-Dichlorobenzimidazol-2-yl)-N-(2,2,6,6-tetramethylpiperidin-4-yl)-N-methyl-3-methoxybenzamide], the melting point is 240 to 242 °C.

`Cc1cc(C(=O)NC2CC(C)(C)NC(C)(C)C2)ccc1-c1nc2cc(Cl)c(Cl)cc2[nH]1` [Example 13, 4-(5,6-Dichlorobenzimidazol-2-yl)-N-(2,2,6,6-tetramethylpiperidin-4-yl)-3-methylbenzamide] returned a melting point of over 250 °C.

In the case of `CCOc1cc(C(=O)Nc2cccnc2)ccc1-c1nc2cc(Cl)c(Cl)cc2[nH]1` [Example 15, 4-(5,6-Dichlorobenzimidazol-2-yl)-N-(3-pyridyl)-3-ethoxybenzamide], the melting point is over 260 °C.

As for `CCOc1cc(C(=O)NCCCO)ccc1-c1nc2cc(Cl)c(Cl)cc2[nH]1` [Example 16, 4-(5,6-Dichlorobenzimidazol-2-yl)-N-(3-hydroxypropyl)-3-ethoxybenzamide], the melting point fell in the range of 148 to 150 °C.

The compound `COc1cc(-c2nc3cc(Cl)c(Cl)cc3[nH]2)c(OC)cc1C(=O)NC1CC(C)(C)N(C)C(C)(C)C1` [Example 17, 4-(5,6-Dichlorobenzimidazol-2-yl)-N-(1,2,2,6,6-pentamethylpiperidin-4-yl)-2,5-dimethoxybenzamide] showed a melting point of over 250 °C.

`COc1cc(-c2nc3cc(Cl)c(Cl)cc3[nH]2)c(OC)cc1C(=O)NC1CC(C)(C)NC(C)(C)C1` [Example 18, 4-(5,6-Dichlorobenzimidazol-2-yl)-N-(2,2,6,6-tetramethylpiperidin-4-yl)-2,5-dimethoxybenzamide]: the melting point was over 250 °C.

The compound `CCOc1cc(C(=O)NC2CC(C)(C)NC(C)(C)C2)ccc1-c1nc2ccc(Cl)cc2[nH]1` [Example 19, 4-(5-Chlorobenzimidazol-2-yl)-N-(2,2,6,6-tetramethylpiperidin-4-yl)-3-ethoxybenzamide] had a melting point of 222 to 225 °C.

Consider `CCN1C(=O)C=CC1=O` [N-ethylmaleimide], for which the “proton transport inhibited / not inhibited” value in data set [1] was “inhibited”.

With `Cc1nc2c(OCc3ccccc3)cccn2c1CC#N` [SCH 28080], the “proton transport inhibited / not inhibited” value in data set [1] is “not inhibited”.

For the compound `CO/C1=C\C(C)=C\[C@@H](C)[C@@H](O)[C@@H](C)C/C(C)=C/C=C/[C@H](OC)[C@@H]([C@@H](C)[C@@H](O)[C@H](C)[C@@]2(O)C[C@@H](O)[C@H](C)[C@@H](C(C)C)O2)OC1=O` [bafilomycin A1], the “proton transport inhibited / not inhibited” value in data set [1] is reported as “inhibited”. In addition, the inhibit bone resorption result in data set [2] is “able to inhibit bone resorption”.

With `C[C@@H]1O[C@@H](O[C@H]2C[C@@H](O)[C@]3(CO)[C@H]4[C@H](O)C[C@]5(C)[C@@H](C6=CC(=O)OC6)CC[C@]5(O)[C@@H]4CC[C@]3(O)C2)[C@H](O)[C@H](O)[C@H]1O` [ouabain], the “proton transport inhibited / not inhibited” value in data set [1] is recorded as “not inhibited”.

Regarding `[Na+].[Na+].[Na+].[O]=[V]([O-])([O-])[O-]` [sodium orthovanadate], the “proton transport inhibited / not inhibited” value in data set [1] is on record as “not inhibited”.
